From the C3SDB collision cross section collection
Values joined by “and” are separate entries in the source; they are usually repeats but may differ in a detail not shown here. Identical values can stand only once.

Settings: instrument: DT, stepped-field

SMILES | collision cross section (N2) ([M+H]+) | collision cross section (N2) ([M+Na]+) | collision cross section (N2) ([M]+) [Å²]
CC1(C)S[C@@H]2[C@H](NC(=O)[C@H](N)c3ccccc3)C(=O)N2[C@H]1C(=O)O [Ampicillin] | 193.17 Å² | 187.93 Å² | 
c1cncc(C2CCCCN2)c1 (centres undefined) [Anabasine] | 140.18 Å² |  | 
NC(=NCCC[C@H](N)C(=O)O)N[C@@H](CC(=O)O)C(=O)O [Argininosuccinic Acid] | 167.39 Å² | 172.22 Å² | 
CCNc1nc(Cl)nc(NC(C)C)n1 [Atrazine] | 150.74 Å² |  | 
C1=Cc2c3ccc4ccccc4c3cc3cccc1c23 [Benz(j)aceanthrylene] | 155.08 Å² |  | 
c1ccc2c(c1)cc1ccc3cccc4ccc2c1c34 [Benzo(a)Pyrene] | 152.05 Å² |  | 
CCCCC/C=C\C/C=C\C/C=C\CCCCCCC(=O)O [Bishomo-gamma-linolenic Acid] |  | 183.38 Å² | 
CC12CCC(CC1=O)C2(C)C (centres undefined) [Camphor] | 142.8 Å² |  | 
NCCC(=O)N[C@@H](Cc1cnc[nH]1)C(=O)O [Carnosine] | 152.18 Å² |  | 
OC[C@H]1O[C@@H](O[C@H]2[C@H](O)[C@@H](O)[C@H](O[C@H]3[C@H](O)[C@@H](O)[C@H](O[C@H]4[C@H](O)[C@@H](O)C(O)O[C@@H]4CO)O[C@@H]3CO)O[C@@H]2CO)[C@H](O)[C@@H](O)[C@@H]1O (some centres undefined) [Cellotetraose] |  | 225 Å² | 
O=C(O)CC(O)(CC(=O)O)C(=O)O [Citric Acid] | 148.9 Å² | 146.11 Å² | 
Oc1cc(O)c2cc(O)c(-c3ccc(O)c(O)c3)[o+]c2c1 [Cyanidin] |  |  | 168.33
OC[C@H]1O[C@H](O[C@H]2[C@H](O)[C@H](O)COC2(O)CO)[C@H](O)[C@@H](O)[C@@H]1O (stereo partly drawn) [D-(+)-Turanose] |  | 177 Å² | 
OC[C@H]1OC(O)[C@H](O)[C@@H](O)[C@H]1O (stereo partly drawn) [D-Galactose] |  | 142.39 Å² | 
OC[C@H]1OC(O)[C@H](O)[C@@H](O)[C@@H]1O (stereo partly drawn) [D-Glucose] |  | 147.72 Å² | 
O=C(O)[C@H]1OC(O)[C@H](O)[C@@H](O)[C@@H]1O (stereo partly drawn) [D-Glucuronate] |  | 153.13 Å² | 
O=C[C@H](O)COP(=O)(O)O [D-Glyceraldehyde 3-Phosphate] | 135.86 Å² |  | 
O=P(O)(O)OC[C@H]1OC(O)[C@H](O)[C@@H]1O (stereo partly drawn) [D-Ribose 5-Phosphate] |  | 155.8 Å² | 
O=C(CO)[C@H](O)[C@H](O)COP(=O)(O)O [D-Ribulose 5-Phosphate] |  | 153.25 Å² | 
O=C[C@H](O)[C@@H](O)[C@H](O)COP(=O)(O)O [D-Xylose 5-phosphate] |  | 151.4 Å² | 
O=C(CO)[C@@H](O)[C@H](O)CO [D-Xylulose] |  | 141.76 Å² | 
Nc1nc(=O)c2c([nH]1)NCC(CNc1ccc(C(=O)N[C@@H](CCC(=O)O)C(=O)O)cc1)=N2 [Dihydrofolate] | 193.63 Å² |  | 

SMILES | collision cross section (N2) ([M+H]+) | collision cross section (N2) ([M+Na]+) | collision cross section (N2) ([M]+) [Å²]
N#Cc1c[nH]cc1-c1cccc2c1OC(F)(F)O2 [Fludioxonil] |  | 165.7 Å² | 
CN(C)C(=O)Nc1cccc(C(F)(F)F)c1 [Fluometuron] | 152.2 Å² | 161.2 Å² | 
CP(=O)(O)CCC(N)C(=O)O (centres undefined) [Glufosinate] | 140.15 Å² | 142.7 Å² | 
Oc1ccc(O)cc1 [Hydroquinone] | 128.79 Å² |  | 
O=C(O)[C@@H]1CCCCN1 [L-Pipecolic Acid] | 130.93 Å² |  | 
CCCCCCCCCCCCCCCCCCC(=O)OC[C@@H](O)COP(=O)([O-])OCC[N+](C)(C)C [LPC(19:0)] | 241.9 Å² |  | 
CCCCCCCCCCCC(=O)O[C@H](CC(=O)[O-])C[N+](C)(C)C [Lauroyl-L-carnitine] |  | 217.5 Å² | 
CCCCC/C=C\C[C@@H](O)/C=C/C=C/C=C\[C@@H](O)CCCC(=O)O [Leukotriene B4] |  | 196.05 Å² | 
CCCCC/C=C\C\C=C/C=C/C=C/[C@@H](SC[C@H](NC(=O)CC[C@H](N)C(=O)O)C(=O)NCC(=O)O)[C@@H](O)CCCC(=O)O [Leukotriene C4] | 257.4 Å² | 260.57 Å² | 
CCCCC[C@H](O)/C=C/C=C\C=C\C=C\[C@@H](O)[C@@H](O)CCCC(=O)O [Lipoxin A4] |  | 197.89 Å² | 
OC[C@H]1O[C@@H](O[C@H]2[C@H](O)[C@H](O)[C@H](O[C@H]3[C@H](O)[C@H](O)[C@H](O[C@H]4[C@H](O)[C@H](O)C(O)O[C@@H]4CO)O[C@@H]3CO)O[C@@H]2CO)[C@@H](O)[C@@H](O)[C@@H]1O (some centres undefined) [Mannotetraose] |  | 234.12 Å² | 
CCCCCCCCCCCCCCCCCCCCCCCC(=O)OC [Methyl Tetracosanoate] | 187.54 Å² |  | 
CO[C@@H]1O[C@H](CO)[C@H](O)[C@H](O)[C@H]1O [Methyl beta-D-galactoside] |  | 149.97 Å² | 
CC(=O)N[C@@H]1C(O)O[C@H](CO)[C@@H](O)[C@@H]1O (stereo partly drawn) [N-Acetyl-D-mannosamine] |  | 154.76 Å² | 
CC(=O)N[C@@H](C)C(=O)O [N-Acetyl-L-alanine] |  | 138.07 Å² | 
O=C1CC(c2ccc(O)cc2)Oc2cc(O)cc(O)c21 (centres undefined) [Naringenin] | 167.96 Å² |  | 
NC(=O)c1ccc[n+]([C@@H]2O[C@H](COP(=O)(O)OP(=O)(O)OC[C@H]3O[C@@H](n4cnc5c(=O)nc[nH]c54)[C@H](O)[C@@H]3O)[C@@H](O)[C@H]2O)c1 [Nicotinamide Hypoxanthine Dinucleotide] | 222.79 Å² | 232.01 Å² | 
O=C(O)c1cccnc1 [Nicotinic Acid] | 128.35 Å² |  | 
CCCCCCCC/C=C\CCCCCCCC(=O)O [Oleic Acid] |  | 181.37 Å² | 
CC[C@H](NC(=O)CC[C@H](N)C(=O)O)C(=O)NCC(=O)O [Ophthalmic Acid] | 167.23 Å² | 165.7 Å² | 
CCCCCCCCCCC(=O)OC[C@H](COP(=O)([O-])OCC[N+](C)(C)C)OC(=O)CCCCCCCCCC [PC(11:0/11:0)] | 257.07 Å² | 260.59 Å² | 
CCCCCCC/C=C\CCCCCCCC(=O)OC[C@H](COP(=O)(O)OCCN)OC(=O)CCCCCCC/C=C\CCCCCCCCC [PE(18:1/18:1)] | 280.6 Å² and 284.02 Å² | 287.57 Å² and 288.54 Å² | 

SMILES | collision cross section (N2) ([M+H]+) | collision cross section (N2) ([M+Na]+) | collision cross section (N2) ([M]+) [Å²]
OC[C@H]1O[C@H](OC[C@H]2OC(O)(CO)[C@@H](O)[C@@H]2O)[C@H](O)[C@@H](O)[C@@H]1O (some centres undefined) [Palatinose] |  | 177.31 Å² | 
O=C1C=Cc2cccc3cccc1c23 [Perinaphthenon] | 134.59 Å² |  | 
NC(=O)CC[C@H](NC(=O)Cc1ccccc1)C(=O)O [Phenylacetyl L-Glutamine] | 160.93 Å² | 171.25 Å² | 
C[N+](C)(C)CCOP(=O)(O)O [Phosphocholine] | 138.54 Å² |  | 
COc1cc(O)c2c(c1)O[C@H](c1ccccc1)CC2=O [Pinostrobin] | 164.24 Å² |  | 
CCCCC[C@H](O)/C=C/[C@@H]1[C@@H](C/C=C\CCCC(=O)O)[C@@H](O)C[C@H]1O [Prostaglandin F2 alpha] |  | 207.33 Å² | 
CCCCC[C@H](O)/C=C/[C@@H]1[C@@H](C/C=C\CCCC(=O)O)[C@@H](O)C[C@H]1O [Prostaglandin F2a] |  | 205.7 Å² | 
CCCCC[C@H](O)/C=C/[C@@H]1[C@@H](C/C=C\CCCC(=O)O)[C@@H]2C[C@H]1OO2 [Prostaglandin H2] |  | 202.63 Å² | 
CO[C@H]1/C=C/O[C@@]2(C)Oc3c(C)c(O)c4c(c3C2=O)C(=O)/C(=C/NN2CCN(C)CC2)C(=C4O)NC(=O)/C(C)=C\C=C\[C@H](C)[C@H](O)[C@@H](C)[C@@H](O)[C@@H](C)[C@H](OC(C)=O)[C@@H]1C [Rifampicin] | 287.13 Å² | 285.07 Å² | 
C[S+](CC[C@H](N)C(=O)[O-])C[C@H]1O[C@@H](n2cnc3c(N)ncnc32)[C@H](O)[C@@H]1O (stereo partly drawn) [S-Adenosyl-L-methionine] | 186.46 Å² |  | 
CCCCCCSC[C@H](NC(=O)CC[C@H](N)C(=O)O)C(=O)NCC(=O)O [S-Hexyl-glutathione] | 203.2 Å² |  | 
C=C[C@H]1[C@H](O[C@@H]2O[C@H](CO)[C@@H](O)[C@H](O)[C@H]2O)OC=C(C(=O)OC)[C@H]1CC=O [Secologanin] |  | 191.96 Å² | 
O=C(O)C1=C[C@@H](O)[C@@H](O)[C@H](O)C1 [Shikimic Acid] | 149.5 Å² |  | 
CCCCCCCCCCCCCCCCCC(=O)O [Stearic Acid] |  | 191.83 Å² | 
O=C(O)CCC(=O)O [Succinic Acid] | 122.66 Å² |  | 
Nc1ccc(S(N)(=O)=O)cc1 [Sulfanilamide] | 156.07 Å² | 152.77 Å² | 
Cc1ncc(C[n+]2csc(CCOP(=O)(O)O)c2C)c(N)n1 [Thiamine Monophosphate] | 172.53 Å² |  | 
Cc1cn([C@H]2C[C@H](O)[C@@H](COP(=O)(O)O)O2)c(=O)[nH]c1=O [Thymidine 5'-Monophosphate] | 163.84 Å² | 169.74 Å² | 
O=P(O)(O)OC[C@H]1O[C@H](O[C@H]2O[C@H](CO)[C@@H](O)[C@H](O)[C@H]2O)[C@H](O)[C@@H](O)[C@@H]1O [Trehalose 6-Phosphate] |  | 192.43 Å² | 
C[n+]1cccc(C(=O)[O-])c1 [Trigonelline] | 126.37 Å² | 139.87 Å² | 
